For 15 compounds, MIC results are on record in DBAASP.

Values after ≈ are worked out from the molar mass of the structure shown. Values joined by “and” are separate entries in the source; they are usually repeats but may differ in a detail not shown here. Identical values can stand only once. Some results are limits rather than exact numbers.

As usually defined, the MIC is the least concentration at which growth counts as inhibited. The low end stands for inhibition by little substance, the high end for a need for much substance.

Test systems include Streptococcus mutans; Escherichia coli; Salmonella typhimurium; Staphylococcus aureus; Bacillus subtilis; Staphylococcus aureus MR; Acinetobacter baumannii; Klebsiella pneumoniae; Enterococcus faecium; Pseudomonas aeruginosa.
Test in all cases: ≥ marks a high value that may be exact or a test limit, other limits are often not marked, values filed in µg/mL are converted to µM
In test [1] the test system is Pseudomonas aeruginosa PAO1.
For test [2], the system named is Staphylococcus aureus USA 300.
Test [3] relates to Klebsiella pneumoniae ATCC 13883.
The test system of test [4] is Escherichia coli ATCC 25922.
The test system of test [5] is Escherichia coli NCTC 10418.
Test [6] deals with Staphylococcus aureus ATCC BAA-1556.
The subject of test [7] is Staphylococcus aureus ATCC 25923.
The subject of test [8] is Pseudomonas aeruginosa ATCC 27853.
The test system of test [9] is Candida albicans ATCC 90028.
Test [10] relates to Acinetobacter baumannii ATCC 19606.
For test [11], the system named is Staphylococcus aureus ATCC 29213.

`C[C@H](N)C(=O)N[C@@H](CCC(N)=O)C(=O)N[C@@H](C)C(=O)N[C@@H](C)C(=O)N[C@@H](CCCCN)C(=O)N[C@@H](CCC(N)=O)C(=O)N[C@@H](C)C(=O)N[C@@H](C)C(=O)N[C@@H](CCCCN)C(=O)N[C@@H](C)C(=O)N[C@@H](C)C(=O)N[C@@H](CCCCN)C(=O)N[C@@H](CCC(N)=O)C(=O)N[C@@H](Cc1ccccc1)C(N)=O` [AQAAKQAAKAAKQF] returned an MIC in the test with Streptococcus mutans not below 87.3 µM.
In the case of `CC(C)C[C@H](NC(=O)[C@H](CC(C)C)NC(=O)[C@H](CCCCN)NC(=O)CNC(=O)[C@H](CC(C)C)NC(=O)[C@H](CC(C)C)NC(=O)[C@H](CO)NC(=O)[C@H](CC(C)C)NC(=O)[C@H](CC(C)C)NC(=O)[C@H](CO)NC(=O)[C@H](CC(C)C)NC(=O)[C@H](C)NC(=O)CN)C(N)=O` [GALSLLSLLGKLL], the MIC came out at 12.5 µM (≈ 16.2 µg/mL) in [1], 0.78 µM (≈ 1.01 µg/mL) in test [2], 6.2 µM (≈ 8.04 µg/mL) in [3] and 3.1 µM (≈ 4.02 µg/mL) in [4].
`C[C@H](NC(=O)CN)C(=O)N1CCC[C@H]1C(=O)N[C@@H](CCCCN)C(=O)NCC(=O)N[C@H]1CSSC[C@@H](C(=O)N[C@@H](CCCCN)C(N)=O)NC(=O)[C@@H]2CCCN2C(=O)[C@H](CCCCN)NC(=O)[C@@H]2CCCN2C(=O)[C@@H]2CCCN2C(=O)[C@H](Cc2ccc(O)cc2)NC(=O)[C@H](CO)NC(=O)[C@H](CCCCN)NC(=O)[C@H]([C@@H](C)O)NC(=O)[C@H](Cc2c[nH]c3ccccc23)NC1=O` [GAPKGCWTKSYPPKPCK] displayed an MIC in test [5] not below 160 µM.
In the case of `CC(C)C[C@H](NC(=O)[C@H](CC(C)C)NC(=O)[C@H](CCCCN)NC(=O)CNC(=O)[C@H](CC(C)C)NC(=O)[C@H](CO)NC(=O)[C@H](CO)NC(=O)[C@H](CC(C)C)NC(=O)[C@H](CC(C)C)NC(=O)CN)C(N)=O` [GLLSSLGKLL], the MIC was more than 25 µM in test [1], 25 µM (≈ 25 µg/mL) in test [2], 25 µM (≈ 25 µg/mL) in test [3] and more than 25 µM in test [4].
In the case of `CC(C)C[C@H](NC(=O)[C@H](CC(C)C)NC(=O)[C@H](CCCCN)NC(=O)[C@H](CC(C)C)NC(=O)[C@H](CCCCN)NC(=O)[C@H](CC(C)C)NC(=O)[C@H](CO)NC(=O)[C@H](CC(C)C)NC(=O)[C@H](CC(C)C)NC(=O)[C@H](CC(C)C)NC(=O)[C@H](CO)NC(=O)[C@H](CC(C)C)NC(=O)CN)C(N)=O` [GLSLLLSLKLKLL], the MIC is more than 25 µM in [1], 6.2 µM (≈ 8.74 µg/mL) in test [2], 25 µM (≈ 35.2 µg/mL) in test [3] and more than 25 µM in test [4].
With `CC(C)C[C@H](NC(=O)[C@H](CC(C)C)NC(=O)[C@H](CCCCN)NC(=O)CNC(=O)[C@H](CC(C)C)NC(=O)[C@H](CO)NC(=O)[C@H](CO)NC(=O)[C@H](CC(C)C)NC(=O)CN)C(N)=O` [GLSSLGKLL], the MIC is more than 25 µM in test [1], 25 µM (≈ 22.2 µg/mL) in test [2], 25 µM (≈ 22.2 µg/mL) in test [3] and more than 25 µM in [4].
As to `CC(C)[C@H](NC(=O)CNC(=O)[C@H](CCCN=C(N)N)NC(=O)[C@@H](NC(=O)[C@@H](NC(=O)[C@@H](NC(=O)[C@H](CCCN=C(N)N)NC(=O)CNC(=O)[C@H](Cc1c[nH]c2ccccc12)NC(=O)[C@H](CCCN=C(N)N)NC(=O)[C@@H](NC(=O)[C@@H](NC(=O)[C@@H](NC(=O)CN)C(C)C)C(C)C)C(C)C)C(C)C)C(C)C)C(C)C)C(=O)N[C@@H](CCCN=C(N)N)C(=O)N[C@@H](CCCN=C(N)N)C(N)=O` [GVVVRWGRVVVRGVRR], the MIC against Escherichia coli came out at 8 µM (≈ 14.8 µg/mL); against Salmonella typhimurium, 4 µM (≈ 7.4 µg/mL); in the test with Staphylococcus aureus it was 8 µM (≈ 14.8 µg/mL); against Bacillus subtilis it was 4 µM (≈ 7.4 µg/mL).
`CC(C)C[C@H](NC(=O)[C@H](CCCCN)NC(=O)[C@H](CC(C)C)NC(=O)[C@H](CC(C)C)NC(=O)[C@H](Cc1c[nH]c2ccccc12)NC(=O)[C@H](CCCCN)NC(=O)[C@H](CC(C)C)NC(=O)[C@H](CC(C)C)NC(=O)[C@H](CCCCN)NC(=O)[C@@H](N)CCCCN)C(N)=O` [KKLLKWLLKL]: the MIC in [6] was 12.5 µM (≈ 16 µg/mL).
In the case of `CC(C)C[C@H](NC(=O)[C@H](CC(C)C)NC(=O)[C@H](Cc1cnc[nH]1)NC(=O)[C@H](Cc1cnc[nH]1)NC(=O)[C@H](CC(C)C)NC(=O)[C@H](Cc1cnc[nH]1)NC(=O)[C@H](CCCCN)NC(=O)[C@H](CC(C)C)NC(=O)[C@H](CC(C)C)NC(=O)[C@H](CCCCN)NC(=O)[C@H](CCCCN)NC(=O)[C@H](CC(C)C)NC(=O)[C@@H](N)CCCCN)C(=O)N[C@@H](Cc1cnc[nH]1)C(N)=O` [KLKKLLKHLHHLLH], the MIC in the test with Streptococcus mutans came out at 4.55 µM (≈ 8 µg/mL). This lies in the single-digit micromolar range.
Consider `CC[C@H](C)[C@H](NC(=O)[C@H](CCCN=C(N)N)NC(=O)[C@H](CCC(N)=O)NC(=O)[C@@H](NC(=O)[C@@H](NC(=O)[C@H](CCCN=C(N)N)NC(=O)[C@@H](N)CCCCN)[C@@H](C)CC)C(C)C)C(=O)N[C@@H](CCCCN)C(=O)N[C@@H](CCCCN)C(=O)N[C@@H](Cc1ccccc1)C(=O)N[C@@H](CC(C)C)C(=O)N[C@@H](CCCN=C(N)N)C(=O)O` [KRIVQRIKKFLR], for which the MIC in the test with Staphylococcus aureus MR is not below 202 µM; against Acinetobacter baumannii, 12.6 µM (≈ 20 µg/mL); in test [7], not below 202 µM; in test [8], 1.25 µM (≈ 1.98 µg/mL); in [9], 2.5 µM (≈ 3.96 µg/mL); in test [10] it was not below 50.5 µM. Further, the MIC in [4] is 0.626 µM (≈ 0.992 µg/mL); in test [11], 1.25 µM (≈ 1.98 µg/mL).
Consider `CC[C@H](C)[C@H](NC(=O)[C@@H](NC(=O)[C@H](CO)NC(=O)[C@@H](NC(=O)[C@@H](NC(=O)[C@H](CCCCN)NC(=O)CNC(=O)[C@H](CC(C)C)NC(=O)[C@H](CC(C)C)NC(=O)CNC(=O)CNC(=O)[C@H](CC(C)C)NC(=O)[C@H](CC(C)C)NC(=O)CNC(=O)[C@H](CCCCN)NC(=O)[C@H](CO)NC(=O)[C@@H](NC(=O)[C@H](CCCCN)NC(=O)[C@H](Cc1c[nH]c2ccccc12)NC(=O)[C@H](Cc1c[nH]c2ccccc12)NC(=O)[C@H](CCCCN)NC(=O)[C@H](CCCCN)NC(=O)[C@@H](N)CC(C)C)[C@@H](C)O)C(C)C)[C@@H](C)O)C(C)C)C(=O)N[C@@H](CCCCN)C(=O)O` [LKKWWKTSKGLLGGLLGKVTSVIK], for which the MIC against Klebsiella pneumoniae was 2.83 µM (≈ 7.47 µg/mL); with Escherichia coli it was 1.41 µM (≈ 3.74 µg/mL); in test [2] it was 5.66 µM (≈ 14.9 µg/mL); with Acinetobacter baumannii, 2.83 µM and 1 µM; in the test on Enterococcus faecium, 1 µM (≈ 2.64 µg/mL); in the test on Pseudomonas aeruginosa, 2.83 µM and 2 µM and 5.66 µM. In the test with Staphylococcus aureus, this compound registered an MIC of 2 µM (≈ 5.28 µg/mL).
In turn, `CC[C@H](C)[C@H](NC(=O)[C@H](Cc1ccccc1)NC(=O)[C@H](Cc1cnc[nH]1)NC(=O)[C@@H](NC(=O)[C@H](Cc1ccccc1)NC(=O)[C@H](CCC(N)=O)NC(=O)[C@H](CCCCN)NC(=O)[C@@H](N)CC(C)C)C(C)C)C(=O)N[C@@H](Cc1cnc[nH]1)C(=O)N[C@@H](CCCN=C(N)N)C(=O)N[C@@H](Cc1ccccc1)C(N)=O` [LKQFVHFIHRF] showed an MIC against Streptococcus mutans of 21.7 µM (≈ 32 µg/mL).
Same read-out and setting: in the case of `NCCCC[C@H](NC(=O)[C@H](CCCN=C(N)N)NC(=O)[C@H](CCCN=C(N)N)NC(=O)[C@H](Cc1c[nH]c2ccccc12)NC(=O)[C@H](Cc1c[nH]c2ccccc12)NC(=O)[C@H](CCCN=C(N)N)NC(=O)[C@@H](N)CCCN=C(N)N)C(=O)O` [RRWWRRK] it was not below 109 µM.
`NCCCC[C@H](NC(=O)[C@H](Cc1c[nH]c2ccccc12)NC(=O)[C@H](CCCN=C(N)N)NC(=O)[C@H](CCCCN)NC(=O)[C@H](CCCN=C(N)N)NC(=O)[C@H](Cc1c[nH]c2ccccc12)NC(=O)[C@@H](N)CCCN=C(N)N)C(=O)O` [RWRKRWK] displayed an MIC against Streptococcus mutans not below 224 µM.
In the case of `CC[C@H](C)[C@H](NC(=O)CNC(=O)CNC(=O)CNC(=O)[C@H](Cc1cnc[nH]1)NC(=O)[C@H](CC(C)C)NC(=O)[C@H](CC(C)C)NC(=O)[C@H](Cc1cnc[nH]1)NC(=O)[C@H](Cc1cnc[nH]1)NC(=O)[C@H](CC(C)C)NC(=O)[C@H](CCCCN)NC(=O)[C@H](CCCCN)NC(=O)[C@H](CC(C)C)NC(=O)[C@H](CC(C)C)NC(=O)[C@H](CCCN=C(N)N)NC(=O)[C@H](CCCN=C(N)N)NC(=O)[C@H](Cc1c[nH]c2ccccc12)NC(=O)[C@@H](N)CCCN=C(N)N)C(=O)N[C@@H](CCCCN)C(=O)N[C@@H](CCC(N)=O)C(=O)N[C@@H](CC(C)C)C(=O)N[C@@H](CC(C)C)C(=O)N[C@@H](Cc1cnc[nH]1)C(=O)N[C@@H](Cc1ccccc1)C(=O)N[C@@H](Cc1ccccc1)C(=O)N[C@@H](CCC(N)=O)C(=O)N[C@@H](CCCN=C(N)N)C(=O)N[C@@H](Cc1ccccc1)C(N)=O` [RWRRLLKKLHHLLHGGGIKQLLHFFQRF], in the test on Streptococcus mutans, the MIC amounted to 4.52 µM (≈ 16 µg/mL).
